Assay results: PubChem BioAssay (NCI)
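Test compounds were applied to cells in 96-well plates for 48 hours at 5 doses. GI50 is the concentration that inhibits growth by half. TGI: concentration producing complete growth inhibition.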

Legend:
Test in all cases: growth of human tumour cells (NCI), 48 h
OVCAR-5 ovarian = test system: OVCAR-5 ovarian
NCI-H522 lung = test system: NCI-H522 lung
SK-MEL-2 melanoma = test system: SK-MEL-2 melanoma
EKVX NSCLC = test system: EKVX NSCLC
UACC-62 melanoma = test system: UACC-62 melanoma
SK-MEL-28 melanoma = test system: SK-MEL-28 melanoma
OVCAR-4 ovarian = test system: OVCAR-4 ovarian
OVCAR-3 ovarian = test system: OVCAR-3 ovarian
SK-OV-3 ovarian = test system: SK-OV-3 ovarian
COLO 205 colon = test system: COLO 205 colon

SMILES	TGI (OVCAR-5 ovarian) [µM]	TGI (NCI-H522 lung) [µM]	TGI (SK-MEL-2 melanoma) [µM]	TGI (EKVX NSCLC) [µM]	TGI (UACC-62 melanoma) [µM]	TGI (SK-MEL-28 melanoma) [µM]	TGI (OVCAR-4 ovarian) [µM]	TGI (OVCAR-3 ovarian) [µM]	TGI (SK-OV-3 ovarian) [µM]	TGI (COLO 205 colon) [µM]	GI50 (OVCAR-5 ovarian) [µM]	GI50 (NCI-H522 lung) [µM]	GI50 (SK-MEL-2 melanoma) [µM]	GI50 (EKVX NSCLC) [µM]	GI50 (UACC-62 melanoma) [µM]	GI50 (SK-MEL-28 melanoma) [µM]	GI50 (OVCAR-4 ovarian) [µM]	GI50 (OVCAR-3 ovarian) [µM]	GI50 (COLO 205 colon) [µM]	GI50 (SK-OV-3 ovarian) [µM]
COc1cc(CC(C)N)ccc1O (configuration not stated)	> 100	> 100	> 100	> 100	> 100	> 100	> 100	> 100	> 100	> 100										
Nc1nc(Nc2ccc(Cl)cc2)sc1C(=O)c1cccs1	> 100		> 100	69.7	> 100	> 100	> 100	72.1	50	> 100										
O=C(O)CC(NC(=O)/C(=C/c1ccccc1O)NC(=O)c1ccccc1)C(=O)O (configuration not stated)	> 100	> 100	> 100	> 100	> 100	> 100	> 100	> 100	> 100	> 100										
Cc1ccc(-c2c(C#N)c(-c3ccc([N+](=O)[O-])cc3)c(C#N)c(=O)n2NS(=O)(=O)c2ccccc2)cc1	> 100	> 100	> 100	> 100	64	> 100	> 100		> 100	> 100										
O=C1c2cccc(NCCNCCO)c2C(=O)c2cccc(NCCNCCO)c21	5.67	1.66	2.77	4.84	3.81	5.88	2.49	4.74	8.45	2.09										
NS(=O)(=O)c1ccc(NC(NC(=O)C(C(F)(F)F)C(F)(F)F)(C(F)(F)F)C(F)(F)F)cc1	> 100	> 100	> 100	> 100	> 100	> 100	> 100	> 100	> 100	> 100										
O=C(Nc1ccc(-n2cc(-c3ccncc3)c(-c3ccc(O)c(Cl)c3)n2)cc1)Nc1cccc(Cl)c1Cl	> 32.5	> 32.5	> 32.5	> 32.5	> 32.5	18	> 32.5	> 32.5		13	> 32.5	4.03	7.18	9.99	9.79	5.8	5.47	6.67	4.54	
O=C1CS(=O)C23c4cc5ccccc5n4CCC2CCCN13 (configuration not stated)	> 100	> 100	> 100	> 100	> 100	> 100	> 100	> 100	> 100	> 100										
COC(=O)c1cc2c(cc1CC(Cc1ccc3c(c1)CCC3)C(=O)OC)CCC2 (configuration not stated)	> 100	> 100	> 100	> 100	> 100	> 100	81.8	> 100	> 100	> 100										
OCC(O)C(O)C(O)/C=N/Nc1nc(O)c(/C=C2\C=Nc3ccccc32)[nH]1 (configuration not stated)	> 100	> 100		> 100	> 100	> 100	> 100	> 100	> 100	> 100										
O=c1n(Cc2ccccc2)c(=O)n2c(=O)n(Cc3ccccc3)c(=O)n12		> 100			> 100	> 100	> 100		> 100	> 100										
C[C@]12CC[C@H](O)C=C1CC[C@@H]1[C@@H]2CC[C@]2(C)C(c3ccc(=O)oc3)CC[C@]12O (some centres not stated)	0.321	0.0155	0.0647	0.145	0.0378	0.222	0.0356	0.018	0.065	0.188										
COC(=O)C1OC(O[C@H]2CC[C@]3(C)[C@H]4CC=C5[C@@H]6CC(C)(C)CC[C@]6(C(=O)OC6OCC(O)C(O)C6OC6OC(C)C(OC7OCC(OC8OCC(O)C(O)C8O)C(O)C7O)C(O)C6O)[C@H](O)C[C@@]5(C)[C@]4(C)CC[C@H]3C2(C)C)C(O)C(O)C1O (some centres not stated)	8.01	7.76	10.1	5.86	10.6	4.24	21.6	20.9	28.1	3.09										
c1csc(-c2c3ccc(=[N+]4CCCCC4)cc-3oc3cc(N4CCCCC4)ccc23)c1	0.733				0.356	0.293			0.682		0.202				0.159	0.143				0.212
Cc1c(C#N)c(N)n(C2OCC(O)C(O)C2O)c(=S)c1C#N (configuration not stated)	> 100	> 100	> 100		> 100	> 100		> 100	> 100											
CCN1C(=O)N(CC)C2Nn3c(s/c(=C4\C(=O)N(C)c5ccccc54)c3=O)=NC21 (configuration not stated)		> 100		> 100		> 100	> 100	> 100		> 100		2.98		2.25		6.45	1.98	1.99	2.26	
CC/C(Cl)=N\OC(=O)Nc1ccc(F)c([N+](=O)[O-])c1	44.9		32	35.6	35.8	33.9	14.7	18.3	34.5	6.58										
O=C(c1ccccc1)N1C(=S)N=C(Nc2ccccc2)C1=Nc1ccccc1	> 100	> 100	> 100	> 100	> 100	> 100	> 100		> 100	> 100										
CN1COCc2cc3cc4c(cc3nc21)OCCO4	> 100	> 100	> 100	> 100	> 100		> 100		> 100	> 100										
CC1=CC(=O)CC2(C)CCC(C(C)CC(=O)CC(C)C)CC12 (configuration not stated)	> 100	30.8	> 100	> 100	59.1	72.9	> 100			31.8										
